In PubChem BioAssay (NCI):
Where “and” joins values, the source holds several entries; their conditions need not be identical. Identical values can stand only once.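 48-hour exposure; five concentrations; linearly interpolated endpoints. At the GI50, growth is halved. At the TGI there is no net growth.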

Key:
Assay in all cases: inhibition of tumour cell growth, NCI panel, 48 h
SK-MEL-28 melanoma = test system: SK-MEL-28 melanoma
HS 578T breast = test system: HS 578T breast
UACC-62 melanoma = test system: UACC-62 melanoma
MDA-MB-435 = test system: MDA-MB-435
SF-268 CNS = test system: SF-268 CNS
MDA-MB-231 breast = test system: MDA-MB-231 breast
DU-145 prostate = test system: DU-145 prostate
SK-MEL-5 melanoma = test system: SK-MEL-5 melanoma
MOLT-4 leukemia = test system: MOLT-4 leukemia
MALME-3M melanoma = test system: MALME-3M melanoma
SK-OV-3 ovarian = test system: SK-OV-3 ovarian

With `O=C(CN1CCOCC1)c1ccc2c(c1)oc(=O)n2CCN1CCCCC1` as the compound, how does the TGI (SK-MEL-28 melanoma) read?
Its TGI is greater than 100 µM.

What about the TGI (HS 578T breast) of the same compound?
Its TGI is greater than 100 µM.

And the TGI (UACC-62 melanoma)?
The TGI was greater than 100 µM.

And the TGI (MDA-MB-435)?
The TGI was greater than 100 µM.

And the TGI (SF-268 CNS)?
The TGI was greater than 100 µM.

What about the TGI (MDA-MB-231 breast) of the same compound?
Its TGI is greater than 100 µM.

And the TGI (DU-145 prostate)?
Its TGI is greater than 100 µM.

And the TGI (SK-MEL-5 melanoma)?
The TGI was greater than 100 µM.

What about the TGI (MOLT-4 leukemia) of the same compound?
Its TGI is greater than 100 µM.

What about the TGI (MALME-3M melanoma) of the same compound?
The TGI was greater than 100 µM.

What about the TGI (SK-OV-3 ovarian) of the same compound?
The TGI was greater than 100 µM.

Which results are given for `CC(=O)Oc1ccc(C2SCc3nc4ccccc4n32)cc1` (stereo not drawn)?
TGI (SK-MEL-28 melanoma): > 100 µM; TGI (HS 578T breast): > 100 µM; TGI (UACC-62 melanoma): > 100 µM; TGI (MDA-MB-435): 59.4 µM; TGI (SF-268 CNS): 70.8 µM; TGI (MDA-MB-231 breast): > 100 µM; TGI (DU-145 prostate): > 100 µM; TGI (SK-MEL-5 melanoma): > 100 µM; TGI (MOLT-4 leukemia): 46.4 µM; TGI (MALME-3M melanoma): > 100 µM; TGI (SK-OV-3 ovarian): 95.3 µM

What does the source list for `CC(C)N=C(NC#N)NS(=O)(=O)c1cnccc1NC1CCCCCCC1`?
TGI (SK-MEL-28 melanoma): > 100 µM; TGI (HS 578T breast): > 100 µM; TGI (UACC-62 melanoma): > 100 µM; TGI (MDA-MB-435): > 100 µM; TGI (SF-268 CNS): > 100 µM; TGI (MDA-MB-231 breast): > 100 µM; TGI (DU-145 prostate): > 100 µM; TGI (SK-MEL-5 melanoma): > 100 µM; TGI (MOLT-4 leukemia): > 100 µM; TGI (MALME-3M melanoma): > 100 µM; TGI (SK-OV-3 ovarian): > 100 µM

Which results are given for `O=C1N(c2ccccc2)N=C2c3ccncc3C3=NN(c4ccccc4)C(=O)C123` (stereo not drawn)?
TGI (SK-MEL-28 melanoma): > 100 µM; TGI (HS 578T breast): > 100 µM; TGI (UACC-62 melanoma): > 57.1 µM; TGI (MDA-MB-435): > 100 µM; TGI (SF-268 CNS): > 100 µM; TGI (MDA-MB-231 breast): > 100 µM; TGI (DU-145 prostate): > 100 µM; TGI (SK-MEL-5 melanoma): > 47 µM; TGI (MOLT-4 leukemia): > 100 µM; TGI (MALME-3M melanoma): > 100 µM; TGI (SK-OV-3 ovarian): > 100 µM

Which results are given for `C=CCOC1=C(OC(C)=O)C(C2COC(C)(C)O2)OC1=O` (stereo not drawn)?
TGI (SK-MEL-28 melanoma): 46.7 µM; TGI (HS 578T breast): > 100 µM; TGI (UACC-62 melanoma): 68.2 µM; TGI (MDA-MB-435): 46.2 µM; TGI (SF-268 CNS): > 100 µM; TGI (MDA-MB-231 breast): 34.5 µM; TGI (DU-145 prostate): > 100 µM; TGI (SK-MEL-5 melanoma): 33.6 µM; TGI (MOLT-4 leukemia): 43.8 µM; TGI (MALME-3M melanoma): 35.1 µM; TGI (SK-OV-3 ovarian): > 100 µM

With `CCOC(=O)C1=CN(Cc2ccccc2)C2ON=C(c3ccc(Cl)cc3)C2C1` (stereo not drawn) as the compound, how does the TGI (SK-MEL-28 melanoma) read?
The TGI was greater than 71.8 µM.

What about the TGI (HS 578T breast) of the same compound?
Its TGI is 21.7 µM.

What about the TGI (UACC-62 melanoma) of the same compound?
The TGI was greater than 69.2 µM.

And the TGI (MDA-MB-435)?
The TGI was greater than 79.5 µM.

What about the TGI (SF-268 CNS) of the same compound?
The TGI was greater than 66.3 µM.

And the TGI (MDA-MB-231 breast)?
The TGI was greater than 61.6 µM.

And the TGI (DU-145 prostate)?
Its TGI is greater than 70 µM.

And the TGI (SK-MEL-5 melanoma)?
Its TGI is greater than 65 µM.

What about the TGI (MOLT-4 leukemia) of the same compound?
Its TGI is greater than 100 µM.

What about the TGI (MALME-3M melanoma) of the same compound?
Its TGI is greater than 71.8 µM.

And the TGI (SK-OV-3 ovarian)?
Its TGI is greater than 85.9 µM.

`CC(C)[Si](CC1=CCCCC12C(=O)N(COCC[Si](C)(C)C)c1ccccc12)(C(C)C)C(C)C` (stereo not drawn) was tested. Which TGI (SK-MEL-28 melanoma) did it give?
The TGI was greater than 100 µM.

What about the TGI (HS 578T breast) of the same compound?
The TGI was greater than 100 µM.

And the TGI (UACC-62 melanoma)?
The TGI was greater than 100 µM.

What about the TGI (MDA-MB-435) of the same compound?
Its TGI is greater than 100 µM.

What about the TGI (SF-268 CNS) of the same compound?
The TGI was greater than 100 µM.

What about the TGI (MDA-MB-231 breast) of the same compound?
Its TGI is greater than 100 µM.

And the TGI (DU-145 prostate)?
Its TGI is greater than 100 µM.

What about the TGI (SK-MEL-5 melanoma) of the same compound?
The TGI was greater than 100 µM.

And the TGI (MOLT-4 leukemia)?
The TGI was greater than 100 µM.

What about the TGI (MALME-3M melanoma) of the same compound?
The TGI was greater than 100 µM.

And the TGI (SK-OV-3 ovarian)?
The TGI was greater than 100 µM.

Which TGI (SK-MEL-28 melanoma) does the source give for `CCOC(=O)CCNC(=O)c1cc(C)cc2c1Oc1c(cc(C)cc1C(=O)NCCC(=O)OCC)S2` here?
The TGI was greater than 100 µM.

What about the TGI (HS 578T breast) of the same compound?
The TGI was greater than 100 µM.

And the TGI (UACC-62 melanoma)?
Its TGI is greater than 100 µM.

And the TGI (MDA-MB-435)?
Its TGI is greater than 100 µM.

And the TGI (SF-268 CNS)?
Its TGI is greater than 100 µM.

What about the TGI (MDA-MB-231 breast) of the same compound?
The TGI was greater than 100 µM.

What about the TGI (DU-145 prostate) of the same compound?
Its TGI is greater than 100 µM.

What about the TGI (SK-MEL-5 melanoma) of the same compound?
Its TGI is greater than 100 µM.

What about the TGI (MOLT-4 leukemia) of the same compound?
The TGI was greater than 100 µM.

What about the TGI (MALME-3M melanoma) of the same compound?
The TGI was greater than 100 µM.

What about the TGI (SK-OV-3 ovarian) of the same compound?
Its TGI is greater than 100 µM.

With `COc1ccc(-c2c(C#N)c(N)n(C3OC(COC(C)=O)C(OC(C)=O)C(OC(C)=O)C3OC(C)=O)c(=S)c2C#N)cc1` (stereo not drawn) as the compound, how does the GI50 (SK-MEL-28 melanoma) read?
Its GI50 is 91.5 µM and 18.6 µM.

And the TGI (SK-MEL-28 melanoma)?
The TGI was > 100 µM and 32.7 µM.

And the TGI (HS 578T breast)?
Its TGI is 83 µM and > 100 µM.

And the TGI (UACC-62 melanoma)?
The TGI was 73.4 µM and 47.3 µM.

What about the GI50 (MDA-MB-435) of the same compound?
Its GI50 is 44.1 µM and 13.4 µM.

What about the TGI (MDA-MB-435) of the same compound?
The TGI was > 100 µM and 26.2 µM.

What about the TGI (SF-268 CNS) of the same compound?
The TGI was > 100 µM and 88.3 µM.

What about the TGI (MDA-MB-231 breast) of the same compound?
The TGI was > 100 µM and 71.2 µM.

What about the GI50 (DU-145 prostate) of the same compound?
The GI50 was 84.2 µM and 34 µM.

What about the TGI (DU-145 prostate) of the same compound?
Its TGI is greater than 100 µM.

And the TGI (SK-MEL-5 melanoma)?
The TGI was > 100 µM and 56.4 µM.

What about the GI50 (MOLT-4 leukemia) of the same compound?
The GI50 was > 100 µM and 37 µM.

And the TGI (MOLT-4 leukemia)?
Its TGI is > 100 µM and 75.1 µM.

What about the TGI (MALME-3M melanoma) of the same compound?
Its TGI is > 100 µM and 75.7 µM.

What about the TGI (SK-OV-3 ovarian) of the same compound?
The TGI was 78.1 µM and 85 µM.
